# Calls of active or inactive are those of the source.
# Tests used:
# Tumor necrosis factor = Tumor necrosis factor (Homo sapiens, UniProt P01375); assay: TNFa-triggered NF-kB activation inhibitors, SAR follow-up, cell-based, revised (AID 2337); type: functional
# [1] = biological target: T1, Nucleotide-binding oligomerization domain-containing protein 1 (Homo sapiens, UniProt Q9Y239); assay: NOD1 signaling inhibitors, SAR follow-up, revised (AID 2333); type: functional
# T1 sequence (Q9Y239 whole entry): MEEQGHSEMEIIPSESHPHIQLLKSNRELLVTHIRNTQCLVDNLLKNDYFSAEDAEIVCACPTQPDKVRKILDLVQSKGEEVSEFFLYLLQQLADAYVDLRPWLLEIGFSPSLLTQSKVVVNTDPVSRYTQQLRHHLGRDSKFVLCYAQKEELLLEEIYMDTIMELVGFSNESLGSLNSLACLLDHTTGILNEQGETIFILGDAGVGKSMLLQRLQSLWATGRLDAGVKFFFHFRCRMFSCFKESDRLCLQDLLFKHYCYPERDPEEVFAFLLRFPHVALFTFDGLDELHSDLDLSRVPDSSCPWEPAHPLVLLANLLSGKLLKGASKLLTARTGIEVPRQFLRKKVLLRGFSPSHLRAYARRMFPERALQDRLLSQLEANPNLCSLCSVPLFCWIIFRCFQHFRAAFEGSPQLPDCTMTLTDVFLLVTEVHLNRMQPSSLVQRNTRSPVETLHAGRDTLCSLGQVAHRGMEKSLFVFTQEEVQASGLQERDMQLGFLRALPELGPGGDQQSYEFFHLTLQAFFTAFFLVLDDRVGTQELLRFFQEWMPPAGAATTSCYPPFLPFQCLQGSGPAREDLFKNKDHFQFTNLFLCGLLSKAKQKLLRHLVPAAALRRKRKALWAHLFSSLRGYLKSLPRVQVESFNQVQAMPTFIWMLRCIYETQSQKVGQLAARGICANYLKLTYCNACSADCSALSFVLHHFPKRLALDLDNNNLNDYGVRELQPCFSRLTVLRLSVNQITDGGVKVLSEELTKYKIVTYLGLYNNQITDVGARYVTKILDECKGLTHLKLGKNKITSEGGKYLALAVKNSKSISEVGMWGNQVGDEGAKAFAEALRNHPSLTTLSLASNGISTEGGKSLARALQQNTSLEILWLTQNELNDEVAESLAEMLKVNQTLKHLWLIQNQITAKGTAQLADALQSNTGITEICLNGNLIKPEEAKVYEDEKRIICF
# [2] = biological target: Nucleotide-binding oligomerization domain-containing protein 2 (Homo sapiens, UniProt Q9HC29); assay: PubChem AID 2334; type: functional
# [3] = Luminescence Cell-Based Dose Retest to Confirm Inhibitors of Cancer Stem Cells. [Related pubchem assays (depositor defined):AID2717, AID2721]; type: functional; conditions: Homo sapiens
# HEK293 [4] = assay: cells; conditions: Homo sapiens
# [5] = biological target: T2, Tyrosine-protein phosphatase non-receptor type 22 (Homo sapiens, UniProt Q9Y2R2); type: functional
# T2 sequence (Q9Y2R2 whole entry): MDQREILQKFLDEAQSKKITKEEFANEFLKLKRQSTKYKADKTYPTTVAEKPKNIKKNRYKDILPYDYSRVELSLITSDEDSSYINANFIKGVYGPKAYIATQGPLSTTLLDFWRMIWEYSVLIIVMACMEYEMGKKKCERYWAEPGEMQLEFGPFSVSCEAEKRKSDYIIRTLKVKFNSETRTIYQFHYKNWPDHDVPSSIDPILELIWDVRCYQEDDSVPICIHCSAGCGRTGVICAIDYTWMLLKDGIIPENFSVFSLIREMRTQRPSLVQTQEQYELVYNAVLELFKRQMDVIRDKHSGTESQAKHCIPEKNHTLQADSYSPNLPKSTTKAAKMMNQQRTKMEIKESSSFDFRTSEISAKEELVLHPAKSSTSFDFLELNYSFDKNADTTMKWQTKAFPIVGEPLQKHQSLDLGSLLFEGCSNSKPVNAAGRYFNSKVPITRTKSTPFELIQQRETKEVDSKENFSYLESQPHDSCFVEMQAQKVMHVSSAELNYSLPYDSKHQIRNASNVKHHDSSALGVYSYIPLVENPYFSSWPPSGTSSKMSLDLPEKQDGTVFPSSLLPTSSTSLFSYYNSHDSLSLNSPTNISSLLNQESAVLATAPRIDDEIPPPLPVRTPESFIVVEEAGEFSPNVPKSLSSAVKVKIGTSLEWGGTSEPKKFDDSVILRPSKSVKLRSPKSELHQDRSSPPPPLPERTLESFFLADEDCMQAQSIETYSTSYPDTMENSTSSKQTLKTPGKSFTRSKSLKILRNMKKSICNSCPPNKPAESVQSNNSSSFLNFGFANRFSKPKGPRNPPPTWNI
# [6] = biological target: T2, Tyrosine-protein phosphatase non-receptor type 22; type: functional; remark: listed apart in the source
# [7] = biological target: T3, Tyrosine-protein phosphatase non-receptor type 7 (Homo sapiens, UniProt P35236); type: functional
# T3 sequence (P35236 whole entry): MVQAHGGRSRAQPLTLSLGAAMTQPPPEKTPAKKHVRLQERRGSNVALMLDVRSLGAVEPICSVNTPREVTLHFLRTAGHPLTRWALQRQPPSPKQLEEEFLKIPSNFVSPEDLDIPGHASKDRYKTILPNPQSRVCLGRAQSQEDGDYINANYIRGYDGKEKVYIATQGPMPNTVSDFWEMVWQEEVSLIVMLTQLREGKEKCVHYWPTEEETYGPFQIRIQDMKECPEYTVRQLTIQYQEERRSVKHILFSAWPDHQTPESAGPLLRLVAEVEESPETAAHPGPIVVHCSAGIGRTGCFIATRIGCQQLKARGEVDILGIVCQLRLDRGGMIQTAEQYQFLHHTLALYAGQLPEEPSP
# Streptokinase A = biological target: T4, Streptokinase A (Streptococcus pyogenes serotype M1, UniProt P10520); assay: S. pyogenes streptokinase expression inhibitors, potency, dose response, plasminogen activation absorbance, OD405 (AID 1914); type: functional, Streptococcus pyogenes M1 GAS;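 also: secreted streptokinase activity via plasminogen activation per viability signal from cell pellet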
# T4 sequence (P10520 whole entry): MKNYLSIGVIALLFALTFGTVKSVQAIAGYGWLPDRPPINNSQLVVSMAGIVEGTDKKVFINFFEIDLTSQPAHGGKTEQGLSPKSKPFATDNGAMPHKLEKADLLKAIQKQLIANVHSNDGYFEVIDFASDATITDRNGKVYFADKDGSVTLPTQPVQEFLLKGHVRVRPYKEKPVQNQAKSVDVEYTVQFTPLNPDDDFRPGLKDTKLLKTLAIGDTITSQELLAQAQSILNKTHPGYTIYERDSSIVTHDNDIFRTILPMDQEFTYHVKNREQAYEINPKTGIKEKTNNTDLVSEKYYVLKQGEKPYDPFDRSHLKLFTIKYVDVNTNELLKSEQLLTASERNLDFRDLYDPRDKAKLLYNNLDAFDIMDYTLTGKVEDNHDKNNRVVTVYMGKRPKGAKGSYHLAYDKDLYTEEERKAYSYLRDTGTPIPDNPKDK
# Vero [8] = assay: cells; type: functional; conditions: Chlorocebus sabaeus
# [9] = system: Streptococcus sp. 'group A'; assay: growth inhibition of control SK(-) GAS strain, dose response, counter-screen for streptokinase expression inhibitor project, luminescence, kanamycin, BacTiterGlo, confirmation (AID 1900); type: functional, organism-based
# [10] = microbe, parasite or virus in culture; type: functional; conditions: Mycobacterium tuberculosis
# Vero [11] = assay: cells; type: functional, cell-based; conditions: Chlorocebus sabaeus
# Streptococcus = assay: Group A Streptococcus viability loss, dose response, counter-screen for streptokinase expression inhibitor project, luminescence, BacTiterGlo (AID 1915); type: functional, organism-based;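 also: potency for reduction of bacterial viability or growth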
# [12] = control 3'UTR Renilla luciferase suppression, dose response, counter-screen for Shn3 inhibitor project, cell-based, Clone20-Shn3RL, cherry-picked (AID 624133); type: functional
# [13] = Shn3 3'UTR reporter inhibitors, dose response, cell-based, Clone20 osteoblasts, firefly luciferase, cherry-picked (AID 624132); type: functional;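 also: firefly luciferase luminescence from reporter carrying the Shn3 3'UTR in osteoblasts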
# [14] = biological target: Lysine-specific demethylase 4C (Homo sapiens, UniProt Q9H3R0); assay: GASC-1 (JMJD2C) histone demethylase inhibitors, dose response, biochemical, DELFIA europium, cherry-picked samples (AID 488835); type: functional
# HEK293 [15] = assay: inhibitors of LMP1-driven NF-kB reporter, dose response, cell-based, HEK293, luciferase, cherry-pick (AID 588343); type: functional; conditions: Homo sapiens
# Nonstructural protein 1 = Nonstructural protein 1 (Influenza A virus, UniProt Q194T2); type: functional, Influenza A virus (A/California/07/2009(H1N1))
# [16] = inhibitors of firefly luciferase expression or activity, dose response, H4 neuroglioma cells, luminescence (AID 1990); type: functional, cell-based
# [17] = biological target: T5, Type-1 angiotensin II receptor (Homo sapiens, UniProt P30556); assay: AT1 receptor antagonists, dose response, selectivity assay for APJ receptor antagonist project, cell-based, uHTS hits (AID 463214); type: functional;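 also: antagonist potency against angiotensin II stimulated AT1 response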
# T5 sequence (P30556 whole entry): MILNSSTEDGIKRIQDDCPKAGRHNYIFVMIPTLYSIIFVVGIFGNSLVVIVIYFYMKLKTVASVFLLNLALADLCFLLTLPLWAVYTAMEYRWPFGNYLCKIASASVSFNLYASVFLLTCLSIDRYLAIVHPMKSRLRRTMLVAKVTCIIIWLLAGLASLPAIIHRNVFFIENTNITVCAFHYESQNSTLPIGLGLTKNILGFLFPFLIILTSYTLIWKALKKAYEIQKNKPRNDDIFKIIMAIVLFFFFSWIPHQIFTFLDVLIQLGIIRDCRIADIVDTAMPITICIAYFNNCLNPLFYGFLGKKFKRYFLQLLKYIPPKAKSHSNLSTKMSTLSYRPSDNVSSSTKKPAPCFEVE
# Beta-galactosidase [18] = biological target: T6, Beta-galactosidase (Escherichia coli, UniProt Q8VNN2); assay: Dose response counterscreen for EBI2 assay utilizing the enzyme, b-galactosidase.; type: functional
# [19] = inhibitors of SNCA 5'UTR-driven reporter translation, confirmation, H4 neuroglioma cells, luminescence (AID 1988); type: functional, cell-based
# INS1 = assay: beta cell apoptosis inhibitors, cytokine rescue, dose response, luminescence, retest (AID 449756); type: functional, cell-based; conditions: Rattus norvegicus;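 also: cell death triggered by IL-1 beta plus TNF-alpha plus IFN-gamma mixture; protective hits raise ATP signal compared with cytokine alone wells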
# Beta-galactosidase [20] = biological target: T6, Beta-galactosidase; assay: PubChem AID 485352; type: functional
# [21] = Luminescence Cell-Based Dose Response HTS to Identify Inhibitors of 5'UTR Stem-Loop Driven Prion Protein mRNA Translation in H4 Neuroglioblastoma Cells. [Related pubchem assays: 1827 (Project Summary), 1813 (Primary HTS)]; type: functional
# [22] = biological target: T7, Voltage-gated N-type calcium channel alpha-1B subunit/Amyloid beta A4 precursor protein-binding family A member 1 (Homo sapiens, UniProt Q00975+Q02410); type: protein assay
# Albumin = Albumin (Bos taurus, UniProt P02769); assay: Counterscreen for inhibitors of T-cell receptor (TCR)-CD3 interaction: Fluorescence-based biochemical high throughput dose response assay to identify inhibitors of T-cell receptor (TCR)-CD3 interaction using a TAMRA-labeled BSA probe.; type: functional
# [23] = biological target: T7, Voltage-gated N-type calcium channel alpha-1B subunit/Amyloid beta A4 precursor protein-binding family A member 1; type: protein assay; remark: listed apart in the source
# [24] = biological target: T8, Dual specificity protein phosphatase 3 (Homo sapiens, UniProt P51452); assay: VHR1 phosphatase inhibitors, biochemical (AID 1878)
# [25] = biological target: T8, Dual specificity protein phosphatase 3; assay: VHR1 phosphatase inhibitors, primary screen, biochemical, absorbance, uHTS (AID 1654)
# [26] = biological target: T9, Dual specificity protein phosphatase 6 (Rattus norvegicus, UniProt Q64346); assay: MKP-3 phosphatase inhibitors, primary screen, biochemical, rat enzyme, in vitro (AID 425)
# T9 sequence (Q64346 whole entry): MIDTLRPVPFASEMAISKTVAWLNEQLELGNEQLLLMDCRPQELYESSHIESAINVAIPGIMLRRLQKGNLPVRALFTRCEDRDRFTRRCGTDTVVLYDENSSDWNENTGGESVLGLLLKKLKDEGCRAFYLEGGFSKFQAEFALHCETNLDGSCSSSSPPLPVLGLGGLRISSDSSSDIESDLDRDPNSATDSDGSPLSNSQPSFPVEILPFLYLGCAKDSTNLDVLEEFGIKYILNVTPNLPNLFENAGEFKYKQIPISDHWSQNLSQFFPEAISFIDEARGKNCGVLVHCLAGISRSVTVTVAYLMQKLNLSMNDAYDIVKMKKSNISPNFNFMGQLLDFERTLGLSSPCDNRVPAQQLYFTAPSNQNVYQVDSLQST
# T8 sequence (P51452 whole entry): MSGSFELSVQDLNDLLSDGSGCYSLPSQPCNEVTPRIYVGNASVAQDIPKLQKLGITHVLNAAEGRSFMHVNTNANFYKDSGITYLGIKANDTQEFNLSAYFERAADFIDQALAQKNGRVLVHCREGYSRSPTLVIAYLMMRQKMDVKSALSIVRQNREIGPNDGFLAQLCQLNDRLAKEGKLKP
# T7 sequence (Q00975 whole entry): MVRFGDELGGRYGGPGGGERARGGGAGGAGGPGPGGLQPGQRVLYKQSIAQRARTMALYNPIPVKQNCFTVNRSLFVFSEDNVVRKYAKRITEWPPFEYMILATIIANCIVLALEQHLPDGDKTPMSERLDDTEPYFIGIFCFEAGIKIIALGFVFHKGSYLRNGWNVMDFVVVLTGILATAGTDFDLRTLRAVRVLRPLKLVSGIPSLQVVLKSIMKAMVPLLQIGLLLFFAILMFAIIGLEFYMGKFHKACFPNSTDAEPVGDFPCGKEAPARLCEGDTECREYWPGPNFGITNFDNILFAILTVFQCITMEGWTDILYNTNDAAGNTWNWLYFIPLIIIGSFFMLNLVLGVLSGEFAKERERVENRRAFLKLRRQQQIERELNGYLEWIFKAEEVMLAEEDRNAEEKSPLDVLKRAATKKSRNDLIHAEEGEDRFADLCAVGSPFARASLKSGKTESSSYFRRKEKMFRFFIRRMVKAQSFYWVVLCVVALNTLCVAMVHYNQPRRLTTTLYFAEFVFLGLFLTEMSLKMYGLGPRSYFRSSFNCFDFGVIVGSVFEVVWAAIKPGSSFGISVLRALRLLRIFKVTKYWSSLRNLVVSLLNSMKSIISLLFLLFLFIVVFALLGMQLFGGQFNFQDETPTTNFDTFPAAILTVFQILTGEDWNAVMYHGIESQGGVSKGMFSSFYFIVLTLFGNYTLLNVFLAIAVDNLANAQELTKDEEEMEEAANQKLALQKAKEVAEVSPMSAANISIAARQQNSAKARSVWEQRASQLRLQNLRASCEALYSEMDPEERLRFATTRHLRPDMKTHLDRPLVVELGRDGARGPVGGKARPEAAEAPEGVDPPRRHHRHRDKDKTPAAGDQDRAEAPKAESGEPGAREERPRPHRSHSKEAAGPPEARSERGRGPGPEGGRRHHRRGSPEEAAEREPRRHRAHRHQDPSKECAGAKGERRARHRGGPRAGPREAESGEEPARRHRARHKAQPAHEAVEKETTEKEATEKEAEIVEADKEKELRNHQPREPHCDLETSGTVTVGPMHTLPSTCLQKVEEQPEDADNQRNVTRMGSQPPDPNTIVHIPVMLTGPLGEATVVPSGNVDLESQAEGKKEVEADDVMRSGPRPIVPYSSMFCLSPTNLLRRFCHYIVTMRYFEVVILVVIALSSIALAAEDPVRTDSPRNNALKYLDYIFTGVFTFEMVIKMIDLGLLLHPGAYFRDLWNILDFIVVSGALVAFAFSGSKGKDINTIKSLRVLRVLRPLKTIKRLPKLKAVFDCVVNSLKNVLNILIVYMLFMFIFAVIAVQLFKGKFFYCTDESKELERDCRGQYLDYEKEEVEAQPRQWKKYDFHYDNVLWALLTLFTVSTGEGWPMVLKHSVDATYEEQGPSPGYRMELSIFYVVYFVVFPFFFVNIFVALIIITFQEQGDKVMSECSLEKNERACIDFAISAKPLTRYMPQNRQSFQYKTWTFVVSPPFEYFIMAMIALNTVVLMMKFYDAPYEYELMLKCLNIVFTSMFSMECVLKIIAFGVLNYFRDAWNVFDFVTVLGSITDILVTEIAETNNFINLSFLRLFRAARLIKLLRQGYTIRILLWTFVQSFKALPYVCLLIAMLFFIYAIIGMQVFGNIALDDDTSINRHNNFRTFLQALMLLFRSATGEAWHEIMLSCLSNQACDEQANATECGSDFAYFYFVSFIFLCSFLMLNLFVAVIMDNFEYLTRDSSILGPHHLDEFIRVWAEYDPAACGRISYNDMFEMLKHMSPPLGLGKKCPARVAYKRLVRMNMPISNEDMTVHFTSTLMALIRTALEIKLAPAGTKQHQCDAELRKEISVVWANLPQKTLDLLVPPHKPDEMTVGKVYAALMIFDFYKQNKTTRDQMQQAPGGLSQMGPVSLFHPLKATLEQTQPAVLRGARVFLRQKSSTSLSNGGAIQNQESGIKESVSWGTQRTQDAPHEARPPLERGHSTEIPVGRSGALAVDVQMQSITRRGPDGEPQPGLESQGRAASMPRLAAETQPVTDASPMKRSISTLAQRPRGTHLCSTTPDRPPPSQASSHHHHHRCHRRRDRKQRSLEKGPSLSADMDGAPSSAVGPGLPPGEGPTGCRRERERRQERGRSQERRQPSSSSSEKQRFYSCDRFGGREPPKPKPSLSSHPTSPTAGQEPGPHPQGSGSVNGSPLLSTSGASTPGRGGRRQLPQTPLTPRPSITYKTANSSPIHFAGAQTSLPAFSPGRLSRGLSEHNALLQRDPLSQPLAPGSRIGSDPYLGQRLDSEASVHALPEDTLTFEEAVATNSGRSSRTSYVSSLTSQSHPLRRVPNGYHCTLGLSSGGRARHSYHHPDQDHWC
# T7 sequence (Q02410 whole entry): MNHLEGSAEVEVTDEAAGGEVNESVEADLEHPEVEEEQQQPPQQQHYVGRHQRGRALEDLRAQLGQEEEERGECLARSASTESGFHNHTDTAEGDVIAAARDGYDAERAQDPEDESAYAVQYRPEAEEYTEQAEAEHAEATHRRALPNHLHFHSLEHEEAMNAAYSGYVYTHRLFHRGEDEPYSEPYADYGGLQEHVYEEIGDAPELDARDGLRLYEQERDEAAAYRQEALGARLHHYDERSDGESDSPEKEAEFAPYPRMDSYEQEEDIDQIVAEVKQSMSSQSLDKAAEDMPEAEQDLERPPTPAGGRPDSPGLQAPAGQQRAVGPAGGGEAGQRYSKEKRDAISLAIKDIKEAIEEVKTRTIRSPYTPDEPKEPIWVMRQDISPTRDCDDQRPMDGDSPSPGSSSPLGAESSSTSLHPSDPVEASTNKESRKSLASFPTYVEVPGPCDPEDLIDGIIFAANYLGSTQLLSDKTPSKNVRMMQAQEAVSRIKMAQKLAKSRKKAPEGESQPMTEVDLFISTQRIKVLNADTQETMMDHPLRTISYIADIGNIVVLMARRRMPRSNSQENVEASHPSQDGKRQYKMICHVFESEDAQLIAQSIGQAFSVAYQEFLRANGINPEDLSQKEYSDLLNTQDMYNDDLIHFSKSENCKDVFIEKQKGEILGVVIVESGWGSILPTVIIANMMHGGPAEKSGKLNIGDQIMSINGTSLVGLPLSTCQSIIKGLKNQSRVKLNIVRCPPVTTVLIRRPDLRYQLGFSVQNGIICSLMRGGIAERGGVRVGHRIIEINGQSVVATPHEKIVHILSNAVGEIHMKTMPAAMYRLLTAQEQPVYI
# T6 sequence (Q8VNN2 whole entry): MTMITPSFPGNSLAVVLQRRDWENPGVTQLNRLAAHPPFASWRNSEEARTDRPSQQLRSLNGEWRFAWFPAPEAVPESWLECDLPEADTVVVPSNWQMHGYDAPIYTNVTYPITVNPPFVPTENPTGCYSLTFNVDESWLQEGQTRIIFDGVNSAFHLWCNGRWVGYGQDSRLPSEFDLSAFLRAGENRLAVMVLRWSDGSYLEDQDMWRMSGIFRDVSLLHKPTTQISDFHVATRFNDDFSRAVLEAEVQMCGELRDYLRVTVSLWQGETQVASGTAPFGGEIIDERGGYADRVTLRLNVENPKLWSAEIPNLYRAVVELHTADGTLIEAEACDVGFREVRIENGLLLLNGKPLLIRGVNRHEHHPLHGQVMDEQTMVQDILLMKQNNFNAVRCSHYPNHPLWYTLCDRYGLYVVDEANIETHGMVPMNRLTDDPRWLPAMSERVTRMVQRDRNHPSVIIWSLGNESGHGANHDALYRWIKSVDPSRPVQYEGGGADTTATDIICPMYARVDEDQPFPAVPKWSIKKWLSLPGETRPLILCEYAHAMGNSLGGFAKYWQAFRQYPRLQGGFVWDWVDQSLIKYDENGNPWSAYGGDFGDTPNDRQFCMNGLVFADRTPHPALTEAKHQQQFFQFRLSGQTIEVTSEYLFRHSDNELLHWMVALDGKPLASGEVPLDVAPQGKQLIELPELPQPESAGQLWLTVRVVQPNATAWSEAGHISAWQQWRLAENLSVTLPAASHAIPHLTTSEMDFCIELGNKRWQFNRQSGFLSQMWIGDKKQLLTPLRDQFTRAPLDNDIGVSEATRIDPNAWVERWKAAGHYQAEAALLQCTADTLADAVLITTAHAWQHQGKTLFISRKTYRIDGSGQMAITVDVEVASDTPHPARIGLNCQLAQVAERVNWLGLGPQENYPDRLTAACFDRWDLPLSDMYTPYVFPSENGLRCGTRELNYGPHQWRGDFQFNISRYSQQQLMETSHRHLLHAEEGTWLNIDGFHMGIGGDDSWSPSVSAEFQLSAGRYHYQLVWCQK
# Nonstructural protein 1, sequence (Q194T2 whole entry): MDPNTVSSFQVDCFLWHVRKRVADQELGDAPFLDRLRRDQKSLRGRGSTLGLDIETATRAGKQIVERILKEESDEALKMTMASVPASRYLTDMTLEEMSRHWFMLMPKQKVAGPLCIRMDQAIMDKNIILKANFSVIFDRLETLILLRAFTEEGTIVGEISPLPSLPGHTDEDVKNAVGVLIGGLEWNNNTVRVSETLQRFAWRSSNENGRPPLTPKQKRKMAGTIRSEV
# Tumor necrosis factor, sequence (P01375 whole entry, the tested form may be a part): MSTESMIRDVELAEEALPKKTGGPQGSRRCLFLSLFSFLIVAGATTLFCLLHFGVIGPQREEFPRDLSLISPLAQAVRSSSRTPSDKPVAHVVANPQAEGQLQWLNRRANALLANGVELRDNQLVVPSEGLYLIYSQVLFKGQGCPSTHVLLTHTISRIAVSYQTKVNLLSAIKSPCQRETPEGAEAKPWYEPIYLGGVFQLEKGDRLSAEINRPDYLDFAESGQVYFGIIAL
structure (smiles),measurement,setting,value
COC(=O)c1c(NC(=O)c2ccccc2)sc2c1CC(C)(C)OC2,IC50,Tumor necrosis factor,> 20 µM (inactive)
same,IC50,[1],> 20 µM (inactive)
same,IC50,[2],> 20 µM (inactive)
same,AC50,[3],9.23 µM (active)
same,IC50,HEK293 [4],> 20 µM (inactive)
CCNS(=O)(=O)c1cc(S(C)(=O)=O)ccc1Cl,IC50,[5],> 79.4 µM (inactive)
same,IC50,[6],> 79.4 µM (inactive)
same,IC50,[7],> 79.4 µM (inactive)
O=C(CSc1ccccn1)Nc1nonc1[N+](=O)[O-],EC50,Streptokinase A,> 150 µM (not active)
same,CC50,Vero [8],20.7 µM (active)
same,EC50,[9],5.77 µM (active)
same,CC50,[10],24.5 µM (active)
same,IC50,Vero [11],> 25 µM (active)
same,EC50,Streptococcus,> 150 µM (not active)
same,AC50,[12],12.5 µM (active)
same,AC50,[13],5 µM (active)
COc1cc2c(cc1OC)C(COc1ccc(F)cc1)NCC2 (centres undefined),AC50,[14],25.2 µM (active)
C/C(=N/NC(=O)c1ccc(C(C)(C)C)cc1)c1ccccn1,AC50,HEK293 [15],1.31 µM (active)
same,CC50,Vero [8],2.62 µM (active)
same,IC50,Nonstructural protein 1,6.97 µM (active)
same,EC50,[16],3.75 µM (active)
same,IC50,[17],3.48 µM (active)
same,IC50,Beta-galactosidase [18],> 80 µM (inactive)
same,EC50,[19],0.455 µM (active)
same,AC50,INS1,0.497 µM (active)
same,IC50,Vero [11],> 25 µM (active)
same,EC50,Beta-galactosidase [20],> 40 µM (inactive)
same,EC50,[21],0.585 µM (active)
Cc1cc(=O)oc2cc(OCC(=O)N/N=C/c3cc([N+](=O)[O-])ccc3O)ccc12,IC50,[22],> 56.8 µM (not active)
same,IC50,Albumin,> 94.1 µM (inactive)
same,IC50,[23],> 50 µM (inactive)
same,IC50,[24],2.6 µM (active)
same,IC50,[25],4.25 µM (active)
same,IC50,[26],24 µM (active)
